The target in one assay is T1, Human HDAC9 (Homo sapiens, UniProt Q9UKV0).
T1 construct: amino acids 604-1066 with C-terminal His tag; His (C); host or cells: baculovirus expression system
The assay is described as follows: HDAC9 biochemical assay, class IIa-specific substrate. The conditions noted are these: read-out: HDAC Isoform IC50 (nM) 9. The essentials: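 HDAC9 residues 604-1066 (C-terminal His tag, baculovirus-expressed) at 0.06 ng/ul with 50 μM class IIa substrate Boc-Lys(trifluoroacetyl)-AMC in Tris-HCl pH 8.0 buffer with BSA and 1% DMSO. 30 min at room temperature, then developer added; fluorescence read at 360/460 nm Ex/Em.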

A further assay addresses T2, Human HDAC8 (Homo sapiens, UniProt Q9BY41).
T2 construct: full length with C-terminal His tag, MW=42.6 kDa; His (C); host or cells: baculovirus expression system
T2 sequence (Q9BY41 1-377): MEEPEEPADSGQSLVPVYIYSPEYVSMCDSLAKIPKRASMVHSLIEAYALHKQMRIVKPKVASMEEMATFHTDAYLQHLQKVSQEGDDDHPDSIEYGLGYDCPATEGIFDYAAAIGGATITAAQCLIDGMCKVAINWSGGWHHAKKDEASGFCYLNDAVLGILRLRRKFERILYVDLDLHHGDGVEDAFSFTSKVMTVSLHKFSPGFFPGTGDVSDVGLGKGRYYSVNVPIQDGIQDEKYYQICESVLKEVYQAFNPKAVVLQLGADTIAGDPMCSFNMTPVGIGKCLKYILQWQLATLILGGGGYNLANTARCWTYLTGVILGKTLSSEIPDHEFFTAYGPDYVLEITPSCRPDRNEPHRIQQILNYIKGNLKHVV
The assay is described as follows: HDAC8 biochemical assay, AMC-labeled peptide substrate. The note with it: read-out: HDAC Isoform IC50 (nM) 8. The method, then:
(§1) Activity against all zinc-dependent HDACs 1 to 11 was assessed by using an acetylated AMC-labeled peptide substrate. The substrate RHKK(Ac)AMC was used for HDAC1, HDAC2, HDAC3, HDAC6 and HDAC10; the substrate used for HDAC8 was RHK(Ac)K(Ac)AMC. Activity against the class IIa HDACs (HDAC4, 5, 7, 9) and HDAC11 was determined using a class IIa-specific substrate, BOC-Lys(trifluoroacetyl)-AMC (“Trifluoroacetyl Lysine”; see Lahm et al, 2007, PNAS, 104, 17335-17340). All assays were based on the AMC-labeled substrate and developer combination.
(§2) The protocol involved a two-step reaction: first, the substrate with the acetylated lysine side chain is incubated with a sample containing HDAC activity, to produce the deacetylated products, which are then digested in the second step by the addition of developer to produce the fluorescent signal proportional to the amount of deacetylated substrates.
Human HDAC8 (GenBankAccession No. NM_018486), full length with C-terminal His tag, MW=42.6 kDa, expressed in a baculovirus expression system.
(§3) Assay Buffer: 50 mM Tris-HCl, pH8.0, 137 mM NaCl, 2.7 mM KCl, 1 mM MgC2. Before use, 1 mg/mL BSA and DMSO are added.
HDAC8: 1 ng/ul HDAC8 and 100 µM HDAC8 substrate are in the reaction buffer with 1% DMSO final. Incubate for 2 hours at 30° C.
(§4) Stage 1: Deacetylation of substrate by incubation of HDAC enzymes with compounds
(§5) Stage 2: Development by addition of Developer to digest the deacetylated substrate, and generate the fluorescent colour; Detection: 360/460 Ex/Em

Assay [1] deals with T3, Complex of human HDAC3 and human NCOR2 (Homo sapiens, UniProt O15379).
T3 construct: full length with C-terminal His tag, MW=49.7 kDa; His (C); host or cells: baculovirus expression system (co-expressed)
Put plainly: HDAC3 biochemical assay, AMC-labeled peptide substrate. The conditions noted are these: read-out: HDAC Isoform IC50 (nM) 3. The method, then:
as §1, §2
Complex of human HDAC3 (GenBank Accession No. NM_003883), full length with C-terminal His tag, MW=49.7 kDa, and human NCOR2 (amino acid 395-489) (GenBank Accession No. NM_006312), N-terminal GST tag, MW=37.6 kDa, co-expressed in baculovirus expression system.
as §3
HDAC3: 0.1 ng/ul HDAC3 and 50 μM HDAC substrate are in the reaction buffer with 1% DMSO final. Incubate for 1 hour at 30° C.
as §4, §5

The target in the next assay is T4, Human HDAC7 (Homo sapiens, UniProt Q8WUI4).
T4 construct: (a.a. 518-end) with N-terminal GST tag; GST (N); host or cells: baculovirus expression system
T4 sequence (Q8WUI4 518-952 limits assumed): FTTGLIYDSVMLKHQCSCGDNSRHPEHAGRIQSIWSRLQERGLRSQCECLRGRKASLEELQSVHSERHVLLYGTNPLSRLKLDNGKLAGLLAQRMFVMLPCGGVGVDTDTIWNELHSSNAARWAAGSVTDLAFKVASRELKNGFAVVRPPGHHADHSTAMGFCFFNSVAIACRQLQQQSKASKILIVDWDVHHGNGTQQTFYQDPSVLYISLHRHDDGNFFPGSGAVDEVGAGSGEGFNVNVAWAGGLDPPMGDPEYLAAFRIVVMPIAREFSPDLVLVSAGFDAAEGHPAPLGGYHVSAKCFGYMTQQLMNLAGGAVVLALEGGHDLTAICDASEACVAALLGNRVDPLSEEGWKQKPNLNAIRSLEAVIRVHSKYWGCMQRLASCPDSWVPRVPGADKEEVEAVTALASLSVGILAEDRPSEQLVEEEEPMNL
Put plainly: HDAC7 biochemical assay, class IIa-specific substrate. The conditions noted are these: read-out: HDAC Isoform IC50 (nM) 7. The procedure, abridged: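 Two-step fluorogenic readout: class IIa-selective trifluoroacetyl-lysine AMC substrate (50 μM) deacetylated by N-terminal GST-HDAC7 fragment (0.001 ng/ul), then digested by developer, Ex/Em 360/460. Reaction: 30 min, room temperature, Tris-HCl pH 8.0, NaCl/KCl/MgCl2, 1 mg/mL BSA, 1% DMSO.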

T1 sequence (Q9UKV0 604-1066 isoform Q9UKV0-5): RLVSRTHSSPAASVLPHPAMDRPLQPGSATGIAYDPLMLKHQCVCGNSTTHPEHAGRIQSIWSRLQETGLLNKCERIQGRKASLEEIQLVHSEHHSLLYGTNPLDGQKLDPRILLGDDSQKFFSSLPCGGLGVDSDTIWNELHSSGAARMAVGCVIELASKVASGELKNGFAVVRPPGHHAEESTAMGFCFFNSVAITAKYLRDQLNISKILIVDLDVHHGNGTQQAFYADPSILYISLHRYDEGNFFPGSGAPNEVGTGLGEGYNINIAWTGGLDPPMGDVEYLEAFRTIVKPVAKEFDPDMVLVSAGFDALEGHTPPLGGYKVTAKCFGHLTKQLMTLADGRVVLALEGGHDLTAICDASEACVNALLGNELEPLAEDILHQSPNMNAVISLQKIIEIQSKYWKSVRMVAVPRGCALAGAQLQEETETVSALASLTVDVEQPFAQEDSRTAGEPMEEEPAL
T3 sequence (O15379 whole entry): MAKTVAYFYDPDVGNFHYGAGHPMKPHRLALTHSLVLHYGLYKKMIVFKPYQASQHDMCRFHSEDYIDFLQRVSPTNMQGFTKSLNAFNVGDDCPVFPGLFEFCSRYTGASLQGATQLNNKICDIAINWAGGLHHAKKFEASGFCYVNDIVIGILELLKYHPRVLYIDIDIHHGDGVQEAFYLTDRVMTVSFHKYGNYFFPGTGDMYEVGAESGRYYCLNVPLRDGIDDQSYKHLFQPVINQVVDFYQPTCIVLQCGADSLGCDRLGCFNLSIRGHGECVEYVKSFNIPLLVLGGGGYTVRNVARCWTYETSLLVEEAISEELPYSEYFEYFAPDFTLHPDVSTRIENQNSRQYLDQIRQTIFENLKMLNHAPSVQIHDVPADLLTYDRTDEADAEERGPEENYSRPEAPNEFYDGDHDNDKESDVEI
T3 sequence (Q9Y618 395-489 partner limits assumed): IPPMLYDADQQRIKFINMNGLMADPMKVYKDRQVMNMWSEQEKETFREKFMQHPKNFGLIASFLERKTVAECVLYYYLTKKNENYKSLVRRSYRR

In the case of `FC(F)(F)c1cnc(N(Cc2ccc(-c3noc(C(F)(F)F)n3)s2)c2cnccn2)cn1` [Example BK, N-(Pyrazin-2-yl)-5-(trifluoromethyl)-N-({5-[5-(trifluoromethyl)-1,2,4-oxadiazol-3-yl]thiophen-2-yl}methyl)pyrazin-2-amine], the IC50 on Human HDAC9 was not above 10000 nM; at Human HDAC8, not above 10000 nM; in assay [1] it was more than 10000 nM; at Human HDAC7 it was not above 10000 nM.

Regarding `Cc1cnnc(N(Cc2ccc(-c3noc(C(F)(F)F)n3)s2)c2cnccn2)c1` [Example GN, 5-Methyl-N-(pyrazin-2-yl)-N-({5-[5-(trifluoromethyl)-1,2,4-oxadiazol-3-yl]thiophen-2-yl}methyl)pyridazin-3-amine], the IC50 on Human HDAC9 was not above 10000 nM; on Human HDAC8, not above 10000 nM; in assay [1], more than 10000 nM; at Human HDAC7 it was not above 1000 nM.

Turning to `O=C(c1cnnc(N(Cc2ccc(-c3noc(C(F)(F)F)n3)s2)c2cnccn2)c1)N1CCC1` [Example FS, 5-(Azetidine-1-carbonyl)-N-(pyrazin-2-yl)-N-({5-[5-(trifluoromethyl)-1,2,4-oxadiazol-3-yl]thiophen-2-yl}methyl)pyridazin-3-amine], the IC50 at Human HDAC9 is not above 10000 nM; at Human HDAC8, not above 10000 nM; in assay [1], more than 10000 nM; at Human HDAC7, not above 1000 nM.

In the case of `O=C(O)c1ccc(N(Cc2sc(-c3noc(C(F)(F)F)n3)cc2F)c2cnccn2)nn1` [Example EZ, 6-[({3-Fluoro-5-[5-(trifluoromethyl)-1,2,4-oxadiazol-3-yl]thiophen-2-yl}methyl)(pyrazin-2-yl)amino]pyridazine-3-carboxylic acid], the IC50 on Human HDAC9 is not above 10000 nM; on Human HDAC8, not above 10000 nM; in assay [1], more than 10000 nM; on Human HDAC7, not above 10000 nM.

`FC(F)(F)c1cnnc(N(Cc2ccc(-c3noc(C(F)(F)F)n3)s2)c2cnccn2)c1` [Example EF, N-(Pyrazin-2-yl)-5-(trifluoromethyl)-N-({5-[5-(trifluoromethyl)-1,2,4-oxadiazol-3-yl]thiophen-2-yl}methyl)pyridazin-3-amine]: the IC50 is not above 10000 nM on Human HDAC9, not above 10000 nM on Human HDAC8, more than 10000 nM in assay [1] and not above 10000 nM on Human HDAC7.

For the compound `O=C(c1cnnc(N(Cc2ccc(-c3noc(C(F)(F)F)n3)s2)c2cnccn2)c1)N1CCOCC1` [Example EB, 5-(Morpholine-4-carbonyl)-N-(pyrazin-2-yl)-N-({5-[5-(trifluoromethyl)-1,2,4-oxadiazol-3-yl]thiophen-2-yl}methyl)pyridazin-3-amine], the half-maximal inhibitory concentration (IC50) was not above 10000 nM on Human HDAC9, not above 10000 nM on Human HDAC8, more than 10000 nM in assay [1] and not above 1000 nM on Human HDAC7.

Regarding `[O-][S+]1CCN(Cc2ccc(N(Cc3ccc(-c4noc(C(F)(F)F)n4)s3)c3cnccn3)nn2)CC1` [Example FO, 4-({6-[(Pyrazin-2-yl)({5-[5-(trifluoromethyl)-1,2,4-oxadiazol-3-yl]thiophen-2-yl}methyl)amino]pyridazin-3-yl}methyl)-1lambda4-thiomorpholin-1-one], the IC50 at Human HDAC9 is not above 10000 nM; at Human HDAC8, not above 10000 nM; in assay [1], more than 10000 nM; at Human HDAC7, not above 1000 nM.

For `FC(F)(F)c1nc(-c2ccc(CN(c3cnccn3)c3cc(CN4CCCC4)ccn3)s2)no1` [Example GG, N-{4-[(Pyrrolidin-1-yl)methyl]pyridin-2-yl}-N-({5-[5-(trifluoromethyl)-1,2,4-oxadiazol-3-yl]thiophen-2-yl}methyl)pyrazin-2-amine], the IC50 on Human HDAC9 is not above 10000 nM; at Human HDAC8, not above 10000 nM; in assay [1], more than 10000 nM; at Human HDAC7, not above 1000 nM.

On to `Cc1cnc(N(Cc2ccc(-c3noc(C(F)(F)F)n3)s2)c2cnccn2)cn1` [Example BH, 5-Methyl-N-(pyrazin-2-yl)-N-({5-[5-(trifluoromethyl)-1,2,4-oxadiazol-3-yl]thiophen-2-yl}methyl)pyrazin-2-amine], for which the IC50 at Human HDAC9 is not above 10000 nM; on Human HDAC8, not above 10000 nM; in assay [1] it was more than 10000 nM; on Human HDAC7, not above 1000 nM.

Consider `CC(F)(F)c1cnnc(N(Cc2ccc(-c3noc(C(F)(F)F)n3)s2)c2cnccn2)c1` [Example GU, 5-(1,1-Difluoroethyl)-N-(pyrazin-2-yl)-N-({5-[5-(trifluoromethyl)-1,2,4-oxadiazol-3-yl]thiophen-2-yl}methyl)pyridazin-3-amine], for which the IC50 on Human HDAC9 was not above 10000 nM; on Human HDAC8 it was not above 10000 nM; in assay [1], more than 10000 nM; at Human HDAC7, not above 10000 nM.

As for `CN(C)C1CN(C(=O)c2cnnc(N(Cc3ccc(-c4noc(C(F)(F)F)n4)s3)c3cnccn3)c2)C1` [Example FX, 5-[3-(Dimethylamino)azetidine-1-carbonyl]-N-(pyrazin-2-yl)-N-({5-[5-(trifluoromethyl)-1,2,4-oxadiazol-3-yl]thiophen-2-yl}methyl)pyridazin-3-amine], the IC50 on Human HDAC9 is not above 10000 nM; at Human HDAC8, not above 10000 nM; in assay [1] it was more than 10000 nM; at Human HDAC7 it was not above 1000 nM.

With `CN1CCN(C(=O)c2cnnc(N(Cc3ccc(-c4noc(C(F)(F)F)n4)s3)c3cnccn3)c2)CC1` [Example EC, 5-(4-Methylpiperazine-1-carbonyl)-N-(pyrazin-2-yl)-N-({5-[5-(trifluoromethyl)-1,2,4-oxadiazol-3-yl]thiophen-2-yl}methyl)pyridazin-3-amine], the IC50 on Human HDAC9 was not above 10000 nM; at Human HDAC8, not above 10000 nM; in assay [1], more than 10000 nM; at Human HDAC7, not above 1000 nM.

As to `NC(=O)c1cnnc(N(Cc2ccc(-c3noc(C(F)(F)F)n3)s2)c2cnccn2)c1` [Example DX, 6-[(Pyrazin-2-yl)({5-[5-(trifluoromethyl)-1,2,4-oxadiazol-3-yl]thiophen-2-yl}methyl)amino]pyridazine-4-carboxamide], the IC50 on Human HDAC9 was not above 10000 nM; at Human HDAC8 it was not above 10000 nM; in assay [1], not above 10000 nM; on Human HDAC7, not above 500 nM.

With `CC1(c2cnnc(N(Cc3ccc(-c4noc(C(F)(F)F)n4)s3)c3cnccn3)c2)COC1` [Example GT, 5-(3-Methyloxetan-3-yl)-N-(pyrazin-2-yl)-N-({5-[5-(trifluoromethyl)-1,2,4-oxadiazol-3-yl]thiophen-2-yl}methyl)pyridazin-3-amine], the IC50 on Human HDAC9 was not above 10000 nM; at Human HDAC8, not above 10000 nM; in assay [1], more than 10000 nM; on Human HDAC7, not above 10000 nM.

The values above are taken from patent US20210038607A1, “OXADIAZOLYLTHIOPHENE DERIVATIVES USEFUL AS HISTONE DEACETYLASE INHIBITORS” (Karus Therapeutics Limited, priority 2018, published 2021).
